Drawing on ChEMBL document CHEMBL2073898, “Overexpression of the BCRP/MXR/ABCP gene in a topotecan-selected ovarian tumor cell line” (Cancer Res, 1999), this text covers Activity for 1 compound.

The target of data set [1] is T1, Broad substrate specificity ATP-binding cassette transporter ABCG2 (Homo sapiens, UniProt Q9UNQ0).
T1 sequence (Q9UNQ0 whole entry): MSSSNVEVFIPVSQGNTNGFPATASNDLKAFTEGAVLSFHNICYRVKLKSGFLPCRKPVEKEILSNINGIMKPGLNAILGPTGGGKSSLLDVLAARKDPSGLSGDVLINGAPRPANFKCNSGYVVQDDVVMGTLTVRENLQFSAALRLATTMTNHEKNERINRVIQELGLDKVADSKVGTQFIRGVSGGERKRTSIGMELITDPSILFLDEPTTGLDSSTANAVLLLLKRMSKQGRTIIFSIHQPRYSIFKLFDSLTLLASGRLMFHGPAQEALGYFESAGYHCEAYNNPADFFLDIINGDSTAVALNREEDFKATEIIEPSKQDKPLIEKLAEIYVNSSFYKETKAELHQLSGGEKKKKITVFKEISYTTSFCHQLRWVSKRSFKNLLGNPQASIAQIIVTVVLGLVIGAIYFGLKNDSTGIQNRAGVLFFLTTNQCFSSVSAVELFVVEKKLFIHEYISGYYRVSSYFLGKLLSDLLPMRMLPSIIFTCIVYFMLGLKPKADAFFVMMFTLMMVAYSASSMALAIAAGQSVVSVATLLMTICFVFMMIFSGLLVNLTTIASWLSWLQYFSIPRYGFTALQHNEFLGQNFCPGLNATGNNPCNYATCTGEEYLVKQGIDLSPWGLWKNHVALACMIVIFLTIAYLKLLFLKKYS
As to the kind of experiment: TP_TRANSPORTER: intracellular concentration of the drug is lower compared with IGROV1 in MX3 cells. It is filed as functional, cell-based.

For data set [2], the target named is T1, Broad substrate specificity ATP-binding cassette transporter ABCG2. As to the kind of experiment: TP_TRANSPORTER: intracellular concentration of the drug is lower compared with IGROV1 in T8 cells. In kind it is functional, cell-based.

SMILES strings stand for the structures.

On to `CC[C@@]1(O)C(=O)OCc2c1cc1n(c2=O)Cc2cc3c(CN(C)C)c(O)ccc3nc2-1` [TOPOTECAN], for which the Activity entry in data set [1] and in data set [2] was “substrate [+]” each time.
